From patent publication US20040214221A1, “High density labeling of DNA with modified or "chromophore" carrying nucleotides and DNA polymerases used” (priority 1999, published 2004)
Like-named read-outs stand apart in the source and are kept apart here.

Experiments:
[1] = system: Klenow-fragment of Chy DNA pol I; assay: Primer extension with modified dNTPs, Chy Klenow polymerase; type: biochemical, Carboxydothermus hydrogenoformans; conditions: template NucT15
Tgo exo^− polymerase = type: biochemical, Thermococcus species
Vent exo^− polymerase = Vent exo^− polymerase (Thermococcus litoralis, UniProt P30317, D141A/DEL1082-1471/DEL495-1032/E143A); assay: Primer extension with modified dNTPs, Vent exo- polymerase; type: biochemical, Thermococcus species; conditions: template NucT15 (18 possible)
Sequence of Vent exo^− polymerase (P30317 with tags, fused parts or gaps D141A/DEL1082-1471/DEL495-1032/E143A): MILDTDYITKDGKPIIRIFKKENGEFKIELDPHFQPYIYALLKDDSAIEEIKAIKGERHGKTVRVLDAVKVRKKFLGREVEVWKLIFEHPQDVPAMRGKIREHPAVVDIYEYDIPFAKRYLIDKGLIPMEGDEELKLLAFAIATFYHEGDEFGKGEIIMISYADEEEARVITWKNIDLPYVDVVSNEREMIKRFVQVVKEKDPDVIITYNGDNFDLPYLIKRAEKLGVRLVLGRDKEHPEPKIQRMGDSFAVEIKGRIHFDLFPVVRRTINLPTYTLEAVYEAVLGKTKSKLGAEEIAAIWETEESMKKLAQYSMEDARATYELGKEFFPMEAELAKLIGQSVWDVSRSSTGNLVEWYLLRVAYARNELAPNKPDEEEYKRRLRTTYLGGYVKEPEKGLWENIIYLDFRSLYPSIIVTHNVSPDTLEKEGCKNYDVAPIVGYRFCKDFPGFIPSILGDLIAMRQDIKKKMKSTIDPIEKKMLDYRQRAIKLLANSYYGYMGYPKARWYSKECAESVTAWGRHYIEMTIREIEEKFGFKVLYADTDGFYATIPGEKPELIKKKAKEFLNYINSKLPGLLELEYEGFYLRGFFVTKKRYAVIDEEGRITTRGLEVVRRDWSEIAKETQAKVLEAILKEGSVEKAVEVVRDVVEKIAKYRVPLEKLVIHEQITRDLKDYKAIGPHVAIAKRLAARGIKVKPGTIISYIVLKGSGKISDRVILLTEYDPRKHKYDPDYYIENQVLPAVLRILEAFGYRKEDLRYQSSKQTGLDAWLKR

## Cc1c(CC(=O)NCCCCCC(=O)NC/C=C/c2cn([C@H]3C[C@H](O)[C@@H](COP(=O)(O)OP(=O)(O)OP(=O)(O)O)O3)c(=O)[nH]c2=O)c(=O)oc2cc(N)ccc12 [AMCA-6-dUTP]
[1]
  substrate activity: high substrate activity
Tgo exo^− polymerase
  elongation of Hex7c7Gd stretch with dUTP derivative: complete elongation

## O=C(CCCCCNC(=O)CCCNC(=O)CCCC[C@@H]1SC[C@@H]2NC(=O)N[C@@H]21)NC/C=C/c1cn([C@H]2C[C@H](O)[C@@H](COP(=O)(O)OP(=O)(O)OP(=O)(O)O)O2)c(=O)[nH]c1=O [Biotin-16-dUTP]
Tgo exo^− polymerase
  elongation of Hex7c7Gd stretch with dUTP derivative: a high molecular weight product is formed
  insertions in neighbouring positions: 18
  product at lower polymerase concentration: full length products were detectable

## CCCCC#Cc1cn([C@H]2C[C@H](O)[C@@H](COP(=O)(O)OP(=O)(O)OP(=O)(O)O)O2)c2ncnc(N)c12 [Hex^7c^7Ad, 7-Hexinyl-7-Desaza-dATP]
Tgo exo^− polymerase
  adjacent positions into which derivative was incorporated: 15

## CCCCC#Cc1cn([C@H]2C[C@H](O)[C@@H](COP(=O)(O)OP(=O)(O)OP(=O)(O)O)O2)c2nc(N)[nH]c(=O)c12 [Hex^7c^7Gd, 7-Hexinyl-7-desaza-dGTP]
Tgo exo^− polymerase
  consecutive incorporations: five
  subsequent positions polymerized: up to 21

## Cy5-10-dUTP
Vent exo^− polymerase
  positions inserted: 13

## DIG-11-dUTP
Tgo exo^− polymerase
  product at lower polymerase concentration: full length products were detectable
  substrate activity / incorporation: high substrate activity

## Fluorescein-12-dUTP
Tgo exo^− polymerase; template NucT3, 50 μM each, 0,1 and 1 unit polymerase
  elongation of Hex7c7Gd stretch with dUTP derivative: complete elongation
Tgo exo^− polymerase; template NucT15, 0,1 unit/reaction
  product at lower polymerase concentration: full length products were detectable

## Rhodamin-green-5(6)-carboxyamido-[5-(3-aminoallyl)-2′desoxy-uridin-5′-triphosphate] [Rhodamine-green-dUTP]
Tgo exo^− polymerase
  insertions in neighbouring positions: 15-16

## Rhodamin-green-5(6)-carboxyamido-ε-aminocaproyl-[5-(3-aminoallyl)-2′desoxy-uridin-5′-triphosphate] [Rhodamine-green-X-dUTP]
Tgo exo^− polymerase
  insertions in neighbouring positions: up to 18
  major products (number of insertions): 13-17
  substrate activity / incorporation: very good substrate for the polymerase

## TMR-6-dUTP [TM-Rhodamine-dUTP]
Vent exo^− polymerase
  positions inserted: 14
